The record followed here is ChEMBL document CHEMBL1201862, “PubChem BioAssay data set” (2004).

Molecules are shown by their SMILES.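 Protocol summary: plate cells (96-well), add compound at 5 concentrations, incubate 48 h, interpolate endpoints linearly. Abbreviation: GI50, concentration required for 50% inhibition of growth.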 Activity calls are given as the source filed them. Rule as the data show it: active = GI50 up to about 1.1 µM and inactive = higher. Where only a bound is given, the exact number is not on record here.

Common to all, as to assay: NCI tumour cell line growth inhibition, 48 h
The test system of experiment [1] is DMS-114.
For experiment [2], the system named is XF498.
Experiment [3] deals with HOP-18.
For experiment [4], the system named is RXF 631.
In experiment [5] the test system is KM-20L2.
Experiment [6] concerns SNB-78.
In experiment [7] the test system is Hs-578T.
The subject of experiment [8] is MDA-MB-231.
For experiment [9], the system named is MDA-MB-435.

Regarding `NC(=O)OCC(COc1ccc(Cl)cc1)OC(=O)c1cc([N+](=O)[O-])cc([N+](=O)[O-])c1` (stereo unspecified), the GI50 in experiment [1] was 35.1 µM (inactive); in experiment [2], 58.2 µM (inactive); in experiment [3] it was > 100 µM (inactive); in experiment [4] it was > 100 µM (inactive); in [5], > 100 µM (inactive); in [6] it was > 100 µM (inactive).

In the case of `CC1CC(c2ccccc2)=Nc2ccccc2S1` (stereo unspecified), the GI50 in experiment [1], in experiment [2], in experiment [4], in [5] and in experiment [6] was > 100 µM (inactive) in each case.

For `COC(=O)N[C@H](C(=O)NC(OCc1ccccc1)C1COC(C)(C)O1)C(C)O[Si](C)(C)C(C)(C)C` (stereo partly specified), the GI50 in [7] was > 100 µM (inactive).

In the case of `C=CCCON(C(=O)OC(C)(C)C)c1ccccc1`, the GI50 in experiment [8], in experiment [9] and in experiment [7] was > 100 µM (inactive) in each case.

Regarding `ON(Cc1ccccc1)C(=S)c1ccccc1`, the GI50 in experiment [1] was 2.22 µM (inactive); in [2], > 41.7 µM (inactive); in [8], 21.4 µM (inactive); in experiment [3], 15.9 µM (inactive); in [4] it was 5.38 µM (inactive); in experiment [5], 4.41 µM (inactive). The GI50 in [7] is > 100 µM (inactive); in [6], 31.8 µM (inactive).

Take `CN(C)CCCNC(=S)S`: the GI50 in experiment [8], in experiment [9] and in [7] was > 100 µM (inactive) each time.

Consider `COc1ccc(NC(=O)C(=O)NNC(=O)c2sc(NNC(C)=O)nc2C)c([N+](=O)[O-])c1`, for which the GI50 in [1] was > 100 µM (inactive); in [2], 71.3 µM (inactive); in experiment [5] it was > 100 µM (inactive); in [6], > 100 µM (inactive).

Turning to `CCOC(=O)C1(C#N)C(c2ccccc2)CC(O)(c2ccc(OC)cc2)C(C(=O)c2ccc(OC)cc2)C1c1ccccc1` (stereo unspecified), the GI50 in experiment [1] was > 100 µM (inactive); in experiment [3], 15.6 µM (inactive); in experiment [5] it was > 100 µM (inactive); in experiment [6] it was > 100 µM (inactive).

On to `Nc1ncnc2c1ncn2C1C(O)C=C(CO)C1O` (stereo unspecified), for which the GI50 is > 625 µM (inactive) in [1]; < 0.0625 µM (active) in experiment [2]; > 625 µM (inactive) in [3]; > 625 µM (inactive) in experiment [5]; > 625 µM (inactive) in experiment [6].

In the case of `CCOC(=O)c1sc2nc(SC)nc(N3CCCCC3)c2c1N`, the GI50 in [8], in experiment [9] and in experiment [7] was > 100 µM (inactive) each time.

As for `COc1cc(C2c3cc4c(cc3[C@@H](Nc3cccc(CO)c3)C3COC(=O)[C@H]23)OCO4)cc(OC)c1O` (stereo partly specified), the GI50 in experiment [1] was 0.427 µM (active); in experiment [2], 0.154 µM (active); in [3], 1.1 µM (active); in [5], 0.766 µM (active).

Regarding `OC1(c2ccc(Cl)cc2)c2ccc3ccccc3c2C2=N[C@H]3CCCC[C@@H]3N21` (stereo partly specified), the GI50 in experiment [8] is 18 µM (inactive); in experiment [9] it was 10.7 µM (inactive); in [7], 1.19 µM (inactive).

As for `NCC(Cl)C(O)c1c[nH]c(N)n1` (stereo unspecified), the GI50 in experiment [1] was 1.54 µM (inactive); in experiment [2], 2.45 µM (inactive); in [3], 0.275 µM (active); in experiment [5] it was 0.596 µM (active); in experiment [6], 9.79 µM (inactive).

For the compound `O=C(Nc1ccc(Cl)c(Cl)c1)C(=O)C(C(=O)c1ccccc1F)C1OC(=O)c2ccccc21` (stereo unspecified), the GI50 was 18.7 µM (inactive) in experiment [1], 31.8 µM (inactive) in experiment [2], 23.6 µM (inactive) in experiment [5] and 11.2 µM (inactive) in experiment [6].

Regarding `CCCCCCCc1cscc1-c1cscc1Br`, the GI50 in [8] was 52.2 µM (inactive); in experiment [9] it was 35.9 µM (inactive).

Regarding `C=C(C)C1Cc2c(cc(O)c3c(=O)c4ccccc4n(C)c23)O1` (stereo unspecified), the GI50 in experiment [1] was > 100 µM (inactive); in experiment [2], 23.8 µM (inactive); in experiment [3], 16 µM (inactive); in [4], 37 µM (inactive); in [5], > 100 µM (inactive); in experiment [6] it was 35.6 µM (inactive).

For the compound `Cc1cc(C)nc(NS(=O)(=O)c2ccc(NC(=O)c3cccc4c(Nc5ccc(S(=O)(=O)Nc6cc(C)on6)cc5)c5ccccc5nc34)cc2)n1`, the GI50 in experiment [1] was 20.7 µM (inactive); in experiment [2], 21.1 µM (inactive); in [6] it was 41.7 µM (inactive).

`O=c1cc(O)c1=O`: the GI50 in [8] was > 10 µM (inactive); in [9], > 100 µM (inactive); in [7], > 100 µM (inactive).

For `CCN(CC)CCO[Si](OCCN(CC)CC)(OCCN(CC)CC)OCCN(CC)CC`, the GI50 in experiment [1], in experiment [2], in [4] and in [5] was > 100 µM (inactive) in each case.

In the case of `Cn1c(=O)c(Cl)c(N=[N+]=[N-])c2ccccc21`, the GI50 in experiment [8] was 60.5 µM (inactive); in experiment [7] it was > 100 µM (inactive).

`CC(C)C1=C(O)C(=O)C2=C(C1=O)C(OC=O)C(O)C1C(C)(C)CCCC21C` (stereo unspecified): the GI50 is 5.79 µM (inactive) in [8], 2.73 µM (inactive) in experiment [9] and 8.51 µM (inactive) in experiment [7].

Regarding `Cc1c(OC(C)C(=O)O)ccc2c(-c3ccccc3)cc(=O)oc12` (stereo unspecified), the GI50 in experiment [1], in experiment [2], in [3], in [4], in experiment [5] and in experiment [6] was > 100 µM (inactive) throughout.

On to `CSc1sc(C)cc1-c1nsc(=O)o1`, for which the GI50 in experiment [9] and in [7] was > 100 µM (inactive) each time.

As to `COc1cc(C)c(CC/C(C)=C/Cc2cc(O)ccc2O)c(C)c1C` [PANICEIN A HYDROQUINONE], the GI50 in experiment [1], in experiment [2], in experiment [3] and in experiment [5] was > 25 µM (inactive) each time.

Take `S=C=NCCc1ccccc1` [PHENETHYLISOTHIOCYANATE]: the GI50 in [1] is 0.382 µM (active); in experiment [2] it was 2.39 µM (inactive); in experiment [5], 0.729 µM (active); in experiment [6], 0.818 µM (active).

With `COC(=O)C12C3C4C1C1C2C3C41C(=O)O` (stereo unspecified), the GI50 in [1], in experiment [2], in [3], in [4], in experiment [5] and in experiment [6] was > 100 µM (inactive) in each case.

Regarding `COc1nc(N=P(c2ccccc2)(c2ccccc2)c2ccccc2)cc(=O)n1C`, the GI50 in [8], in [9] and in experiment [7] was > 100 µM (inactive) each time.

Turning to `CC(C)C(=O)Cc1ccc2ccccc2n1`, the GI50 in experiment [8] was > 100 µM (inactive); in [9], 70 µM (inactive); in [7] it was > 100 µM (inactive).

Take `N=c1n(C(=O)N2CCCC2)c2cc(Cl)ccc2n1C1=NCCN1`: the GI50 was 67.9 µM (inactive) in [8], 52 µM (inactive) in [9] and > 100 µM (inactive) in experiment [7].

With `CC(O)(P(=O)(O)O)P(=O)(O)OCC(O)CN1CCOCC1` (stereo unspecified), the GI50 in experiment [8], in experiment [9] and in [7] was > 100 µM (inactive) each time.

In the case of `C=CCNC(=O)N(CCC)CCCC(NC(C)=O)C(=O)NCc1ccccc1` (stereo unspecified), the GI50 in experiment [1] is > 100 µM (inactive); in experiment [2], > 100 µM (inactive); in [3], 16.3 µM (inactive); in experiment [4], > 100 µM (inactive); in experiment [5], > 100 µM (inactive).

Consider `COc1cc(C(C)c2cc3c(cc2OCCOCCOc2cc4c(cc2C(C)c2cc(OC)c(OC)c(OC)c2)OCO4)OCO3)cc(OC)c1OC` (stereo unspecified), for which the GI50 in experiment [1], in experiment [2], in experiment [3], in experiment [4], in experiment [5] and in experiment [6] was > 10 µM (inactive) in each case.

Take `CC1(Br)S(=O)(=O)OCCOS1(=O)=O`: the GI50 in experiment [1], in [2], in experiment [5] and in experiment [6] was > 100 µM (inactive) throughout.

With `O=c1oc2ccc(-n3c(=O)c4ccccc4c4ccccc4c3=O)cc2c2ccccc12`, the GI50 in experiment [8] is > 100 µM (inactive); in [9] it was > 100 µM (inactive); in [7], 27 µM (inactive).

`Nc1nc(O)c2[nH]cnc2[n+]1[O-]`: the GI50 in [8] and in experiment [7] was > 100 µM (inactive) in each case.

As to `O=c1c2cc(I)ccc2nc(-c2cccs2)n1O`, the GI50 in experiment [9] was 34.8 µM (inactive).

For the compound `Sc1ncc(-c2cncc(-c3cnc(S)nc3)n2)cn1`, the GI50 in experiment [8], in [9] and in experiment [7] was > 100 µM (inactive) throughout.

`COc1cccc(C2c3cc4c(cc3OC(N3CCOCC3)C2C)OCO4)c1` (stereo unspecified): the GI50 in experiment [8] was 35.1 µM (inactive); in [7] it was 13.9 µM (inactive).

Consider `CCOC(=O)Cc1cc(OC)c(OC)cc1/C(Cl)=C(\CO)c1ccc(OC)c(OC)c1`, for which the GI50 is 66.5 µM (inactive) in experiment [1]; 16.9 µM (inactive) in experiment [2]; > 100 µM (inactive) in experiment [3]; > 100 µM (inactive) in experiment [4]; > 100 µM (inactive) in [5]; 59 µM (inactive) in experiment [6].

Turning to `CC1=CC(=O)CC2(C)CCC(C(C)CC(=O)CC(C)C)CC12` (stereo unspecified), the GI50 in experiment [8] was 42.8 µM (inactive); in experiment [9], 20.3 µM (inactive); in experiment [7], > 100 µM (inactive).

As to `COc1cc2c(cc1OC)C1(COc3cc(O)c(O)c(O)c3C1=O)C2` (stereo unspecified), the GI50 is > 50 µM (inactive) in experiment [8], > 50 µM (inactive) in experiment [9] and 16.4 µM (inactive) in experiment [7].

Take `Brc1cc(CCOC2CCCCO2)c(-c2sccc2CCOC2CCCCO2)s1` (stereo unspecified): the GI50 in experiment [8] was > 100 µM (inactive); in [9], 37.7 µM (inactive); in experiment [7], 13.9 µM (inactive).
